Measured values as given in ChEMBL document CHEMBL1201862, “PubChem BioAssay data set” (2004).
Active and inactive are the calls of the source.

Experiments:
[1] = A cytotoxicity screen of small molecule inhibitors of the PhoP region in Salmonella typhi identified in the primary screen. [Related pubchem assays: 1850, 1864, 1985 ]; assay type: functional
[2] = target: Luciferin 4-monooxygenase (Photinus pyralis, UniProt P08659); test: firefly luciferase enzyme inhibitors, dose response, biochemical, luminescence (AID 1891)
Sequence of Luciferin 4-monooxygenase (P08659 whole entry): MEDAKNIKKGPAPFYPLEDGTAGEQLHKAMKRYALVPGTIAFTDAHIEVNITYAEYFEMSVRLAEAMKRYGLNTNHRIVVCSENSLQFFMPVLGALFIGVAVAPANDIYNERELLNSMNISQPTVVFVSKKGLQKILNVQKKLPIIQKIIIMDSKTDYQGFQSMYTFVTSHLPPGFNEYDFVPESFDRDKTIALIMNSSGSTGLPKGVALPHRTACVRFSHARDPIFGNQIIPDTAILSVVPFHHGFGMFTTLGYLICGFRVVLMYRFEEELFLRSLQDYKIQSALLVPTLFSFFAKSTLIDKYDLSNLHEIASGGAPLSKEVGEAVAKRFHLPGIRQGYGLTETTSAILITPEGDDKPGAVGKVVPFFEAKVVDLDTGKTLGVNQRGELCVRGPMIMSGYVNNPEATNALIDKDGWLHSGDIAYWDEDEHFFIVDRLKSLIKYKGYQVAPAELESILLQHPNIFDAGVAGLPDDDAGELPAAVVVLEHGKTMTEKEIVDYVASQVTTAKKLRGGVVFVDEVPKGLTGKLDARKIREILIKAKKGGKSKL

[3] = Luminescence Cell-Based Dose Confirmation HTS to Identify Inhibitors of Platelet Dense Granule Release. [Related pubchem assays: 1663 (Primary HTS), 1678 (Summary of Project)]; assay type: functional
[4] = target: T1, Heat shock factor protein 1 (Mus musculus, UniProt P38532); test: inhibition of MG132-induced HSE-luciferase signal, confirmation, cell-based, NIH3T3, luminescence, dose retest (AID 2382); assay type: functional;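 note: NIH3T3 fibroblasts with HSF1-driven luciferase reporter stressed by proteasome inhibitor MG132; luminescence from HSF1-driven luciferase expression after 8 hours of MG132 stress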
T1 sequence (P38532 whole entry): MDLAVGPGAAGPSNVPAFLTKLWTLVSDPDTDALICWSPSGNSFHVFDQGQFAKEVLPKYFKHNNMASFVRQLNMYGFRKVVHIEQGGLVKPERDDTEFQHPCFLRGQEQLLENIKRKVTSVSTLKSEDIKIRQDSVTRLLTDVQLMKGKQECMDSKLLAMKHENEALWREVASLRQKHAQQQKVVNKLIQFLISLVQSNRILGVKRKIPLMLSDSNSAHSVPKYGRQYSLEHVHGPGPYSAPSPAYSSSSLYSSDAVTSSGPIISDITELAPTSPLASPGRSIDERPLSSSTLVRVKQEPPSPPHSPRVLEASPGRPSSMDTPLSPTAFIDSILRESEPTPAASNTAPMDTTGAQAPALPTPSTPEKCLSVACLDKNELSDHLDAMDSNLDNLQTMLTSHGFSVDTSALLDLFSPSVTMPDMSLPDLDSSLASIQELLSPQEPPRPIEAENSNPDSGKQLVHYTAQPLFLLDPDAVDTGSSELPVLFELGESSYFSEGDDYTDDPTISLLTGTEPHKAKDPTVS

[5] = target: T2, DNA repair and recombination protein RAD54-like (Homo sapiens, UniProt Q92698); test: inhibitors of human RAD54 branch migration, confirmation, biochemical, fluorescence, cherry-picked samples, dose series (AID 651657); assay type: functional
T2 sequence (Q92698 whole entry): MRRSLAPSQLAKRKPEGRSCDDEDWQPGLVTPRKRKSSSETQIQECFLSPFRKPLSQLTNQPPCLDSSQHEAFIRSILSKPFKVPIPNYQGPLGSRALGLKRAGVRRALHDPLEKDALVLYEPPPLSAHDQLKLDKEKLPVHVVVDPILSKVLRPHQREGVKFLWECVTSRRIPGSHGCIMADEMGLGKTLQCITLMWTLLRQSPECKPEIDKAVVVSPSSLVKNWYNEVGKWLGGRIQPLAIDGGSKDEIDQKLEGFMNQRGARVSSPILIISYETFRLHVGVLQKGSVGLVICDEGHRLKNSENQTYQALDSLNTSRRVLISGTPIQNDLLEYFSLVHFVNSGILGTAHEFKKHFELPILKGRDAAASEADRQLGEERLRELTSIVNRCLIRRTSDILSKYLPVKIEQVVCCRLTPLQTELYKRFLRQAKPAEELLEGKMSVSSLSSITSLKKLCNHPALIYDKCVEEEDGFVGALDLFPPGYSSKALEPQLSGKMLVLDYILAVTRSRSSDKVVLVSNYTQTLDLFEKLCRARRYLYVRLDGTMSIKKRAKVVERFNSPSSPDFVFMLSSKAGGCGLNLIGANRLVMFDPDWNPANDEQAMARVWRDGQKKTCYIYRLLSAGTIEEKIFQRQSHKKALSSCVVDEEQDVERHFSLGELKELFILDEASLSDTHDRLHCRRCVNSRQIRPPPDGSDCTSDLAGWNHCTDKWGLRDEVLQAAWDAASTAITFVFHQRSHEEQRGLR

[6] = target: T3, DNA repair protein RAD52 homolog (Homo sapiens, UniProt P43351); assay type: functional, biochemical
T3 sequence (P43351 whole entry): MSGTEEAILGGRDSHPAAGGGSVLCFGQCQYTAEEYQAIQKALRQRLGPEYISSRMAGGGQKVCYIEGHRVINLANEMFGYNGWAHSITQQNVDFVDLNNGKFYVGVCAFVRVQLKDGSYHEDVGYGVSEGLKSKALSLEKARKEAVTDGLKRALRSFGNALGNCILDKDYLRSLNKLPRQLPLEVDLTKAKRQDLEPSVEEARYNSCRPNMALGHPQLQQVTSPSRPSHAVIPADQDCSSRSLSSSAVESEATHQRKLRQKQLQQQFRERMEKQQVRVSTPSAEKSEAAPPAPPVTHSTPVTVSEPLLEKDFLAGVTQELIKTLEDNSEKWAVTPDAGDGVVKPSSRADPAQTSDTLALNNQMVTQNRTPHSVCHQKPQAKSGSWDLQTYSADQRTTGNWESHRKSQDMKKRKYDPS

[7] = target: Peroxisome proliferator-activated receptor gamma/Nuclear receptor coactivator 1 (Homo sapiens, UniProt P37231); test: (§1) TR-FRET dose response biochemical High Throughput Screening assay for agonists of the steroid receptor coactivator 1 (SRC-1) recruitment by the peroxisome proliferator-activated receptor gamma (PPAR gamma): non-selective agonists. [Related pubchem assays (depositor defined):AID1300, AID1808, AID504735, AID631]; assay type: protein assay
Sequence of Peroxisome proliferator-activated receptor gamma/Nuclear receptor coactivator 1 (P37231 whole entry): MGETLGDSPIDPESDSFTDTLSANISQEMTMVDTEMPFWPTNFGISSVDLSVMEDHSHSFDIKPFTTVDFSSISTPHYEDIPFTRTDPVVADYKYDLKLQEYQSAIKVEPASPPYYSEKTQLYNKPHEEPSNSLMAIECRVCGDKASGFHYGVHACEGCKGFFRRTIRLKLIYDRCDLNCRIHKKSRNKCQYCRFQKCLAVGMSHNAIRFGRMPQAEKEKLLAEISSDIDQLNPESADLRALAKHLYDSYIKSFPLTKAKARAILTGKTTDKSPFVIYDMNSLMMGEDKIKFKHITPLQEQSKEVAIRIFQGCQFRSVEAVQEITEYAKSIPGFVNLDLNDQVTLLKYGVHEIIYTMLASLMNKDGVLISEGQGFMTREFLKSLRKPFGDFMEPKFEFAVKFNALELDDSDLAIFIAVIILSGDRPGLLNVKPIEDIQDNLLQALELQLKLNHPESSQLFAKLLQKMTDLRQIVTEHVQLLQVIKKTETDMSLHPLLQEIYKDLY
Sequence of Peroxisome proliferator-activated receptor gamma/Nuclear receptor coactivator 1 (Q15788 whole entry, further chain): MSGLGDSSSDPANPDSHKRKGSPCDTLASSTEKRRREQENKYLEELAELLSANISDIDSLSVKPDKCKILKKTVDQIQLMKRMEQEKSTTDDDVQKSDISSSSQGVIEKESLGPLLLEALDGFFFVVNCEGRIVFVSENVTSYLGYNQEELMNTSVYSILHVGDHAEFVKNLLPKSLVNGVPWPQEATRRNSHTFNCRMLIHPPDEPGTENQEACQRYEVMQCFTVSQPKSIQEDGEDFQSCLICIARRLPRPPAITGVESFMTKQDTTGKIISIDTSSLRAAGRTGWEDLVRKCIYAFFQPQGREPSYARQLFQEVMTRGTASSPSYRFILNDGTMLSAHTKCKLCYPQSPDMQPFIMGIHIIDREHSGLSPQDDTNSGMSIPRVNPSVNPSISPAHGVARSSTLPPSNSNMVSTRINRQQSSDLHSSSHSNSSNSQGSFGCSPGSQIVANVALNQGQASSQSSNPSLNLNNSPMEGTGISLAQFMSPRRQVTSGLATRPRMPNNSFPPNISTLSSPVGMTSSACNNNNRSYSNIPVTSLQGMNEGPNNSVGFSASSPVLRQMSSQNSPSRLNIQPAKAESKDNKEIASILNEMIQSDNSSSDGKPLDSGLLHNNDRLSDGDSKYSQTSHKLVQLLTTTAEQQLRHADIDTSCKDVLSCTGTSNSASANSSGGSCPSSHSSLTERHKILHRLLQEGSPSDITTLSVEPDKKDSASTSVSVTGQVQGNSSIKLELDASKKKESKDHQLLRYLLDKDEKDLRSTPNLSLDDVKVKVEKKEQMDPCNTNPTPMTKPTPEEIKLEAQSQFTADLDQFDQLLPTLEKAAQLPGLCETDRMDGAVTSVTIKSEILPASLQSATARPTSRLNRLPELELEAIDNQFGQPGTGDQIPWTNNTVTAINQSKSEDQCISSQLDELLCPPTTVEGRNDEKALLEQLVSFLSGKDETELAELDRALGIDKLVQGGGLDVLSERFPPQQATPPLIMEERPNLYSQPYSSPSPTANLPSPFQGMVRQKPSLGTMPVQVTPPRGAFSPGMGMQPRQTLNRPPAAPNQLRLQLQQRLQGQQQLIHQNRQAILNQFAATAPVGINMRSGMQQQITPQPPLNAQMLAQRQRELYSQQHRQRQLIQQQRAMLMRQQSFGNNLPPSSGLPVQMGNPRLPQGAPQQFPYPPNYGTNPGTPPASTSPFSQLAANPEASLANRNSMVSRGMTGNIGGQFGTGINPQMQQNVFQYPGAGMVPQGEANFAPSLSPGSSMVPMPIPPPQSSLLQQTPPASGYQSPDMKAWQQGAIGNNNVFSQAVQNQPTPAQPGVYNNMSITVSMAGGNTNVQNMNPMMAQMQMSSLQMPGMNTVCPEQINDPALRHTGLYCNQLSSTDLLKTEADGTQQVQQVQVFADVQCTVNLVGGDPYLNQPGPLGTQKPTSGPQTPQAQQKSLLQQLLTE

[8] = target: Peroxisome proliferator-activated receptor gamma/Nuclear receptor coactivator 3 (Homo sapiens, UniProt P37231); test: as §1, with “3 (SRC-3)” for “1 (SRC-1)”, “assays: 1301 (Confirmation screen.), 1048 (Primary screen.)]” for “assays (depositor defined):AID1300, AID1808, AID504735, AID631]”; assay type: functional
Sequence of Peroxisome proliferator-activated receptor gamma/Nuclear receptor coactivator 3 (P37231 whole entry): as the sequence (P37231 whole entry) above
Sequence of Peroxisome proliferator-activated receptor gamma/Nuclear receptor coactivator 3 (Q9Y6Q9 whole entry, further chain): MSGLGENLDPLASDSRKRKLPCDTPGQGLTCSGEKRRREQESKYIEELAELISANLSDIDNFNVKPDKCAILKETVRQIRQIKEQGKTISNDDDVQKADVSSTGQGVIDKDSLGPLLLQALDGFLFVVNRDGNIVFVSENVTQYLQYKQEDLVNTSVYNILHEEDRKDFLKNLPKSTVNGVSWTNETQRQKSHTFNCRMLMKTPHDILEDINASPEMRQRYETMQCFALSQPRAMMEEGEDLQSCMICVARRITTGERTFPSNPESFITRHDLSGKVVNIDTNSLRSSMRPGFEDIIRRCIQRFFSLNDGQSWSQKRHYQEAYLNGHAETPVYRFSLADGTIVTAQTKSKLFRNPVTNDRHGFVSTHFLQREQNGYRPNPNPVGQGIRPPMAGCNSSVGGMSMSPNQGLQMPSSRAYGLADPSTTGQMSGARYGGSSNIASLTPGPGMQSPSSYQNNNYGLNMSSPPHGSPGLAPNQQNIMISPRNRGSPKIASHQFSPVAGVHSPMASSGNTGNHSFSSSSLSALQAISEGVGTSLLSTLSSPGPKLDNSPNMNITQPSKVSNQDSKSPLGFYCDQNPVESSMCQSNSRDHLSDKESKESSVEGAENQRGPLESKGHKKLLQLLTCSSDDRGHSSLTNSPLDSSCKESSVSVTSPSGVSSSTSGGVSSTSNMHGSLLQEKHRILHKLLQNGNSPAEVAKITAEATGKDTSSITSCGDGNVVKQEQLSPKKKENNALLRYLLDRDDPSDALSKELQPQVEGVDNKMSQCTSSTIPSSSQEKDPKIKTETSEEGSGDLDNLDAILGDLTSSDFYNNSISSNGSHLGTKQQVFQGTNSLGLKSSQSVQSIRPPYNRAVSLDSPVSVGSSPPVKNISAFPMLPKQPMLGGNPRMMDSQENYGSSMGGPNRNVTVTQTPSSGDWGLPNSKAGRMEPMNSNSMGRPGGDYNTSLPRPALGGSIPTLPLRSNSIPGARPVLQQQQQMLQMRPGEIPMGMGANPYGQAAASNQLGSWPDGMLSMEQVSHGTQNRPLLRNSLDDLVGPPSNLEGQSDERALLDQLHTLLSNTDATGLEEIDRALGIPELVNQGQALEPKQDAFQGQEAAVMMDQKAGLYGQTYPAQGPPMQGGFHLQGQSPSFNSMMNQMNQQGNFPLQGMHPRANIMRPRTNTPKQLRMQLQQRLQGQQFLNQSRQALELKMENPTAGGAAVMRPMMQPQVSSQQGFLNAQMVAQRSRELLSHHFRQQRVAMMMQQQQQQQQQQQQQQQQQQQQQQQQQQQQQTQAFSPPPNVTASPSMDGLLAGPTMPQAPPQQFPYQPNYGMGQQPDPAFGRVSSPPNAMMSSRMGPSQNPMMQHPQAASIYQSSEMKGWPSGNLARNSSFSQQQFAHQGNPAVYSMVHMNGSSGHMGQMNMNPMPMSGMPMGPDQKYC

[9] = target: Peroxisome proliferator-activated receptor gamma/Nuclear receptor coactivator 2 (Homo sapiens, UniProt P37231); test: TR-FRET dose response biochemical High Throughput Screening assay for agonists of the steroid receptor coactivator 2 (SRC-2) recruitment by the peroxisome proliferator-activated receptor gamma (PPAR gamma): non-selective agonists. [Related pubchem assays: 1297, 1032 ]; assay type: functional
[10] = target: T4, Short transient receptor potential channel 4 (Mus musculus, UniProt Q9QUQ5); test: mouse TRPC4 channel inhibitors, dose response, cell-based, HEK293 TRPC4/mu-opioid, Fluo-4 calcium (AID 434942); assay type: functional;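 note: potency of inhibitors blocking the TRPC4 calcium response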
T4 sequence (Q9QUQ5 whole entry): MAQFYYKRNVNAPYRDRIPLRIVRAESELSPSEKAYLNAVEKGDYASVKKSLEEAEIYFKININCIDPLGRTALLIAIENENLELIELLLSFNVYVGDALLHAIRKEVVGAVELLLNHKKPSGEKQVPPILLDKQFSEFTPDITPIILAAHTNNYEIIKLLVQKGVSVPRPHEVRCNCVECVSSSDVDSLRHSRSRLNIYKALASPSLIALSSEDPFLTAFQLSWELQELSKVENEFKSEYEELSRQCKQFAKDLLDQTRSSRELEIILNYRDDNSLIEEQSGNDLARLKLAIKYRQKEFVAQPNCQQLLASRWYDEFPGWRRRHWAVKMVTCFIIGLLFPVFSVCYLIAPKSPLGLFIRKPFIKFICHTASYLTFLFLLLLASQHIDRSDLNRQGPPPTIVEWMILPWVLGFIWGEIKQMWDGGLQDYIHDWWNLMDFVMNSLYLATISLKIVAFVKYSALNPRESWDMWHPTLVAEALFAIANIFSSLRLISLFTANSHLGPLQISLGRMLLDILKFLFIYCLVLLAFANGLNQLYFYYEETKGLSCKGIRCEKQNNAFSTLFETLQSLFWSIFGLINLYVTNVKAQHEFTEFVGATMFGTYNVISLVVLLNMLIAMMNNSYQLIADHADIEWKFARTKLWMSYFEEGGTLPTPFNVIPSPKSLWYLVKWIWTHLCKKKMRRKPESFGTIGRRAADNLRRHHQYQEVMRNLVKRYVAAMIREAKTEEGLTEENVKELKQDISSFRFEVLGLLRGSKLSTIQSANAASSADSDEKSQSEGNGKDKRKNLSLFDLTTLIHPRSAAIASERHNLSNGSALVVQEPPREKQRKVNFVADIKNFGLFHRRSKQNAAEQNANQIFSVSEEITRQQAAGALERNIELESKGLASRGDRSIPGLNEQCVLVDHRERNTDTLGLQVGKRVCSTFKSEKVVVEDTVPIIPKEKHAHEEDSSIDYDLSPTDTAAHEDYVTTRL

[11] = target: Genome polyprotein (dengue virus type 2, UniProt P29990); test: Dengue-2 NS5 methyltransferase inhibitors, primary screen, biochemical, confirmation dose response (AID 588689); assay type: functional
[12] = target: T4, Short transient receptor potential channel 4; test: mouse TRPC4 channel activators, dose response, cell-based, HEK293 TRPC4/mu-opioid, Fluo-4 calcium (AID 434937); assay type: functional
[13] = inhibitors of intracellular T. cruzi replication, confirmation, NIH3T3 host cells, beta-gal luminescence (AID 2044); assay type: functional, cell-based;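 note: intracellular parasites grown in NIH/3T3 mouse fibroblasts as host cells; luminescent beta-galactosidase reporter signal from transgenic T. cruzi replicating inside host cells; inhibitors lower the luminescence signal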
[14] = cytotoxicity toward NIH3T3 fibroblasts, dose response, counter-screen, cell-based, ATP luminescence, mouse fibroblasts (AID 2010); assay type: functional; settings: NIH3T3;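 note: cells exposed to compound for about 90 hours before reading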
[15] = target: Cytochrome P450 2C19 (Homo sapiens, UniProt P33261); test: Cytochrome panel assay with activity outcomes. Panel member name: p450-cyp2c19 Compounds with AC50 equal or less than 10 uM are considered active; assay type: functional; settings: read-out: AC50
Sequence of Cytochrome P450 2C19 (P33261 whole entry): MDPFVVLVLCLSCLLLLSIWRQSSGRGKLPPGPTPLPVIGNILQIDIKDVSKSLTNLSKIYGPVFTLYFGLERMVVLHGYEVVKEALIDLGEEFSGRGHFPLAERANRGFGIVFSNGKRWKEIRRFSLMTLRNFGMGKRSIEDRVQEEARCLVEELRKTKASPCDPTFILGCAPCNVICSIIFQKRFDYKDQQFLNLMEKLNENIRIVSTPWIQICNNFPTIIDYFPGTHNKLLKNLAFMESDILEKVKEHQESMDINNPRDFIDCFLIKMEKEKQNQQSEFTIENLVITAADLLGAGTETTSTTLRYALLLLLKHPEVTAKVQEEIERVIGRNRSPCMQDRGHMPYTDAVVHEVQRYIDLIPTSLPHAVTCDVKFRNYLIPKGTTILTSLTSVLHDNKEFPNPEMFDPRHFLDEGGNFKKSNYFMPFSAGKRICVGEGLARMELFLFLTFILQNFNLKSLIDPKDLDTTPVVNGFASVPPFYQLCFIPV

## C/C=C/c1ccc(OCc2cc(=O)n3cc(C)ccc3n2)c(OC)c1
[1]
  EC50: > 50 µM (active)
[2]
  EC50: > 112 µM (not active)
[3]
  EC50: 58.2 µM (active)

## COc1ccccc1Nc1nc(NCCCN(C)C)nc(N)c1[N+](=O)[O-]
[4]
  EC50: > 195 µM (not active)
[5]
  AC50: 11.1 µM (active)
[6]
  AC50: 5.59 µM (active)

## O=C(Nc1nc2c(s1)COc1ccccc1-2)c1cccs1
[7]
  EC50: 28.5 µM (inactive)
[8]
  EC50: > 79.4 µM (not active)
[9]
  EC50: 19.7 µM (not active)

## CC(Nc1ccc(Br)cn1)c1cc(Cl)ccc1O (configuration not stated)
[7]
  EC50: 6.3 µM (active)
[8]
  EC50: 3.26 µM (active)
[9]
  EC50: 4.73 µM (active)

## Cc1ccc(C)c2c(N)c3c(nc12)CCCCC3.O=C(O)c1cncc(Br)c1
[10]
  EC50: 0.944 µM (active)

## Cc1ccc(S(=O)(=O)Nc2nc(-c3ccc(F)cc3)cs2)cc1
[11]
  IC50: 70.6 µM (active)

## CCOc1ccccc1-n1c(SCC(=O)Nc2nccs2)nnc1-c1ccoc1C
[10]
  EC50: 1.5 µM (active)

## Cc1cccc(N2CCN(Cc3ccoc3)CC2)c1C
[10]
  EC50: 0.668 µM (active)

## Cc1ccc(S(=O)(=O)NCCC(=O)NCC(c2ccco2)N2CCCCC2)cc1C (configuration not stated)
[10]
  EC50: 0.168 µM (active)
[12]
  EC50: 0.944 µM (active)

## CCOC(=O)N/N=C\c1ccc([N+](=O)[O-])o1
[1]
  EC50: > 50 µM (active)
[13]
  EC50: 0.542 µM (active)
[14]
  EC50: > 30 µM (not active)
[15]
  AC50: 25.1 µM (inconclusive)
